Values quoted from earlier work in PMC6916687 (Drug Design, Development and Therapy, 2019).

What was measured:
QGY-7703 cells = conditions: read-out: IC50 for QGY-7703 cells
MDA-MB-231 cells = conditions: read-out: IC50 for MDA-MB-231 cells

IC50 (QGY-7703 cells) [µM] | IC50 (MDA-MB-231 cells) [µM] | Structure (SMILES)
6.27 | – | O=c1c2ccccc2oc2cc(-c3ccccc3)ccc12 [3-phenylxanthone]
– | 48.4 | Cc1ccc2c(=O)c3cccc(CC(=O)O)c3oc2c1C [DMXAA, 5,6-dimethylxanthone-4-acetic acid]
